Patent publication US11826399B2, “Chlorotoxin agents and uses thereof” (Eisai Inc., priority 2017, dated 2023)

Tested on: PC-3 human prostate cancer cells
Assay: Co-administration of Cryptophycin Payload with CTX or iRGD in subcutaneous PC-3 xenograft model
Format: in vivo, mouse
Conditions: iRGD + Cryptophycin Payload 0.2 mg/kg (data not shown)

Substance: iRGD: tumor-penetrating peptide iRGD (CRGDK/RGPD/EC) (SEQ ID NO: 202)
- Effect of co-administration on tumor re-growth versus Cryptophycin Payload alone: re-growth of tumors was not shown to be significantly different
